From paper PMC7509988 (2018) come the findings set out here.

This test deals with E2 aptamer (DNA, aptamer) AAGGGATGCCGTTTGGGCCCAAGTTCGGCATAGTG
The test can be described thus: graphene field-effect transistor. Conditions: 0.05 × PBS; pH 7.4, 5% DMSO, no interference; 4.67 nM with pH variation 6.5-8.0.

SMILES strings stand for the structures.

Compound `C[C@]12CC[C@@H]3c4ccc(O)cc4CC[C@H]3[C@@H]1CC[C@@H]2O` had a KD of 4.21 nM.

By KD is commonly meant the constant that tells how readily two partners part at equilibrium. A higher KD goes with weaker binding.
